Series [1] concerns human punch biopsy wounds. Nature of the series: Human punch biopsy wounds, re-epithelialisation by histology. The format is in vivo. The note with it: 100 μl intradermal 10 minutes before wounding, 3 mm punch biopsy. From the text:
Healthy male and post-menopausal female volunteers were chosen as the subjects of the study. 44 healthy subjects were recruited to the study, of whom, 40 were healthy males (aged 18-75 years) and 4 were post-menopausal females (aged 53-69 years). The average age of subjects recruited to this study was 42 years. The post-menopausal status of female subjects was confirmed by quantification of serum levels of oestradiol and follicle stimulating hormone (FSH). Serum levels of oestradiol were required to be <90 pmol/L, and follicle stimulating hormone levels >31 IU/L.
Each subject had three wounds treated with active drug, one corresponding to each of three concentrations of the medicaments produced; a fourth wound was treated with placebo control. The test medicaments and placebo control were each administered intradermally, as a single dose, at a volume of 100 μl per wound site (the upper, inner aspect of each arm), 10-minutes before wounding.
Subjects received 3 mm punch biopsies at the sites where the medicaments had been administered. After wounding, all sites received moist wound healing dressings (Standard Care).
Biopsy sites were excised, using a 5 mm punch biopsy, three days after wounding. Excised wounds were preserved for histological assessment of re-epithelialisation by image analysis. All histological assessments of early wound healing events were made using preserved 5 micron-thickness wound sections taken from the widest part of each excised biopsy site. Sections were stained with Haematoxylin and Eosin to aid visualisation of structural features, and measurements made using image analysis software. The distance traveled by the epithelium is derived from two histological measurements: the freehand total wound diameter and the freehand non-epithelialised wound diameter. […] Percentage re-epithelialisation for the new epithelium was calculated as a proportion of the total wound diameter. The average percentage re-epithelialisation value was calculated from the 44 wounds of each treatment group.

For series [2] the following is noted: application of 100 μg in a gel to an epidermal surface, six hours from application; cited from earlier work.

Take `C[C@]12CC[C@@H]3c4ccc(O)cc4CC[C@H]3[C@@H]1CC[C@@H]2O` [17β-oestradiol]: the “re-epithelialisation three days after wounding” value was 37.4% in series [1] (0.02 μg/100 μl (0.00002%) medicament), 42.3% in series [1] (0.1 μg/100 μl (0.0001%) medicament) and 42.6% in series [1] (0.2 μg/100 μl (0.0002%) medicament).

In the case of `C[C@]12CC[C@@H]3c4ccc(O)cc4CC[C@H]3[C@@H]1CC[C@@H]2O` [oestradiol], in series [2], the “applied oestradiol found in the skin or having passed through the skin” value was 15.7 µg.

Source of the values: patent publication US20080153795A1, “Medicaments and methods for wound healing” (RENOVO LIMITED, priority 2006, published 2008).
